Key:
[1] = tested on: Lactobacillus plantarum ATCC 8014 in corn mash; assay: Level of L. plantarum in inoculated corn mash by plating on MRS agar (Example 2); format: cell-based; details: 3 ppm
Description: Samples of corn mash were collected from a commercial fuel ethanol plant. The corn mash was collected immediately after liquefaction, prior to entry into fermentation. Corn mash samples were frozen upon arrival and defrosted for use in experiments. Lactobacillus plantarum ATCC 8014 was cultured overnight in MRS broth (Difco, Sparks, Md.). Samples of corn mash were inoculated with L. plantarum at approximately 10^4 CFU/ml. This level of bacterial contamination is common in fuel ethanol plants. L. plantarum bacteriophage (B-8014) were prepared and titered using the overlay method on MRS agar (as described in Example 1). One sample of corn mash received no treatment. A second sample was treated by the addition of 3 parts per million (ppm) of Penicillin G. Three additional samples were treated with phage at a bacteria to phage ratio of 1:1, 1:10, and 1:100. All mash samples were incubated at 33° C., the temperature at which commercial fermentation takes place. The level of bacteria remaining in the test samples was determined by decimal dilutions in phosphate-buffered saline followed by plating of these dilutions onto plates of MRS agar. Plates were incubated overnight at 33° C. and colonies were enumerated.

L. plantarum ATCC 8014 = assay: Growth of L. plantarum in MRS broth by optical density (Example 1); format: cell-based, Lactobacillus plantarum; details: 1 ppm, after 40 hours of incubation
Source text: Lactobacillus plantarum is a bacterium commonly isolated from contaminated fuel ethanol fermentation. In this example, a spectrophotometer was used to quantify the growth of L. plantarum in laboratory media. The use of a spectrophotometer allowed rapid determination of bacterial levels by optical density. The optical density indicates the amount of light (at a wavelength of 450 nm) absorbed by a sample. High levels of bacterial growth in a sample well result in higher optical density.
L. plantarum ATCC 8014 was cultured overnight in MRS broth (available from Difco, Sparks, Md.) at 30° C. Stocks of L. plantarum ATCC 8014 bacteriophage (bacteriophage cocktail is referred to in the Examples as “B-8014”) were prepared and titered using the overlay method (Adams, M. H. The Bacteriophages, Interscience Publishers, New York, 1959) with MRS agar. Since bacteriophage (phage) are viruses, they are unable to replicate outside of their bacterial host. Therefore, to enumerate phage, cultures of host bacteria were prepared and mixed with dilutions of phage. These mixtures were placed onto a petri dish containing agar and incubated overnight. The presence of clear zones on “lawns” of bacteria indicated phage infection. These clear zones are known as “plaques” and therefore, phage levels are commonly referred to as plaque forming units per milliliter (PFU/ml). […]

In the case of `CC1(C)S[C@@H]2[C@H](NC(=O)Cc3ccccc3)C(=O)N2[C@H]1C(=O)O` [Penicillin G], the “effect on growth of L. plantarum” value [1] is reported as “did not affect or control growth”, the “Log CFU/ml at 0 hours” value ([1]; 33° C.) is reported as 4.86 Log CFU/ml and the “Log CFU/ml at 24 hours” value ([1]; 33° C.) is reported as 9.09 Log CFU/ml. For the same molecule, the “Log CFU/ml at 40 hours” value ([1]; 33° C.) was 9.19 Log CFU/ml, the “optical density at 450 nm compared with control wells” value (L. plantarum ATCC 8014) was “higher” and the “reduction of growth of L. plantarum” value (L. plantarum ATCC 8014) was “not effective”.
